Assay results published in patent US20250249110A1, “ANTIMICROBIAL PEPTIDE DERIVATIVE AND USE THEREOF” (SICHUAN UNIVERSITY, priority 2016, published 2025).
Where no end group is shown, it is not given here.

How the values were obtained:
[1] = tested on: Staphylococcus aureus 33591; assay: Intra-abdominally infected mouse model; format: in vivo; settings: intravenous administration; DP7-C 1 mg/kg, VAN 20 mg/kg; vs NS group, p<0.01
Protocol: The anti-infection activity of DP7-C is determined by the intra-abdominally infected models. […]
The experimental steps are as follows: • (1) Activate Staphylococcus aureus 33591 with MHB the day before the experiment, wash the activated strains twice with normal saline on the day of the experiment, and determine the concentration of bacterial liquid for later use. • (2) To establish an abdominally infected mouse model, intraperitoneally inject the bacterial solution of 1.5×10^8 cfu/0.5 mL into each mouse. • (3) Intravenously inject the drug by group after one hour of infection, 0.1 mL/mouse. • (4) 24 h later, intraperitoneally inject 5 mL of normal saline into the mouse, gently massage the abdomen, kill the mouse and disinfect with 75% alcohol. After 5 min, scissor the abdominal cavity epithelium, make a small opening in the abdominal cavity, draw ascites as much as possible from the opening with a 1 ml syringe, and then transfer to a sterile EP tube for mixing. • (5) Dilute with normal saline at a dilution of, for example, 10×, 100×, 1000× and 10000×; take three bacterial solutions with suitable concentrations, 20 μL each, coat the MHA plate and incubate in a bacteria incubator overnight. • (6) Select a plate with 20-200 colonies and convert and calculate the amount of bacteria per milliliter in 5 milliliters of ascites.

red blood cells [2] = assay: Hemolysis test in vitro; format: cell-based, human (healthy volunteers); settings: FIG. 5B
Protocol: In the hemolysis test, DP7 and DP7-C at the same concentration were detected for the hemolysis of red blood cells. • 1. Take the blood of healthy volunteers and put into an anticoagulant tube and gently mix. • 2. Take out the anticoagulant, add isometric physiological saline, mix slowly and evenly, centrifuge at 400×g for 10 min, and discard the supernatant. • 3. Slowly mix the red blood cells and wash with PBS, centrifuge at 400×g for 10 min, discard the supernatant, and wash the cell precipitate with PBS for three times. • 4. Dilute with PBS to obtain 20% (v/v) red blood cell solution, which can be used immediately or stored at 4° C. for about 2 weeks (without hemolysis). • 5. Dilute the drug into a series of concentration gradients with PBS, add 100 μL of drug into a 96-well plate, take 100 μL of 2% Twain 20 as the positive control, add 100 μL of PBS to the negative control. Repeat the process 3 times for each concentration of drug. • 6. Dilute 20% (v/v) of red blood cell solution with PBS according to the volume ratio of 1:20, mix evenly and add to a 96-well plate, with the drug concentration of 100, 200, 400, 600, 800, 1000, 1200, 1600 μg/mL respectively, and incubate at 37° C. for 1 h. • 7. Incubate the mixture of drugs and red blood cells, centrifuge at 900×g for 10 min, add 160 μL of the supernatant to a new 96-well plate, and read the absorbance value at OD 450 nm. • 8. According to the absorbance value of A450, calculate the percentage of hemolysis corresponding to each concentration of drugs.
The calculation formula of the percentage of hemolysis is: […]

staphylococcus aureus = settings: background statement; cited from earlier work
red blood cells [3] = settings: cited from earlier work

Compound	average colony forming unit (CFU) of Staphylococcus aureus [1]	appearance of hemolysis test (red blood cells [2])	therapeutic effect in vivo (staphylococcus aureus)	lethality (red blood cells [3]; high concentration, intravenous injection)	hemolysis of red blood cells (red blood cells [3]; mouse, in vivo, iv)
CN[C@H](CC(C)C)C(=O)N[C@H]1C(=O)N[C@@H](CC(N)=O)C(=O)N[C@H]2C(=O)N[C@H]3C(=O)N[C@H](C(=O)N[C@H](C(=O)O)c4cc(O)cc(O)c4-c4cc3ccc4O)[C@H](O)c3ccc(c(Cl)c3)Oc3cc2cc(c3O[C@@H]2O[C@H](CO)[C@@H](O)[C@H](O)[C@H]2O[C@H]2C[C@](C)(N)[C@H](O)[C@H](C)O2)Oc2ccc(cc2Cl)[C@H]1O [VAN, Vancomycin, reference compound]	significantly lower than those in NS group	–	–	–	–
VQWRIRVAVIRK-NH2 [DP7, VQWRIRVAVIRK-NH2]	–	red blood cells are lysed	very good therapeutic effect	kill mice	cause hemolysis of red blood cells
